Assay results reported in patent US12673014B2, “Inhibitors of glycosphingolipid synthesis and methods of use” (priority 2018, dated 2026).

What was measured:
Type in all cases: in vivo, mouse
[1] = system: ApoE−/− mice fed a western diet; test: Skin and hair phenotype (hair discoloration, hair loss, skin inflammation, wounds) in ApoE-/- mice fed western diet
Text: Male, 11-week-old apolipoprotein E-deficient (ApoE−/−) mice were purchased from Jackson Labs (Bar Harbor, Maine), and fed a western diet from the age of 12 to 20 weeks. Next, they were divided into the following diet/treatment groups.
Measurement of skin discoloration: An oval shape was drawn on the photographs taken from mice at the age of 36 weeks. This oval space covered the back area of mice from the neck to the tail ([…]). Using the free drawing pen and measure/analyze tool, the white area was measured for each mouse. The ratio of white area to the total area was then calculated, and the standard deviations for all the animals in each cage (N=5) was calculated and plotted.
Measurement of wounds and wound healing: For mouse skin wound analysis, the number of visible wounds in placebo-vs. BPD-treated mice (N=5 in each group), were counted manually. Then, averages of the wounds for each group were determined, as were the ratios of wounds in BPD-vs placebo-treated mice. Those ratios were then converted to percentages, expressed as “% wound healing.”

[2] = system: skin glycosphingolipids (ceramide, monohexosylceramide, lactosylceramide); test: Skin glycosphingolipids by LC-ESI/MS/MS in ApoE-/- mice fed western diet
Text: Sample preparation: Glycosphingolipid molecular species were extracted according to a modified Bligh and Dyer procedure^55 Briefly, about 50-mg of each tissue sample was homogenized with 10 volumes of HPLC water at room temperature, followed by addition of 30 volumes methanol solution containing ammonium formate and d18:1/C12:0 ceramide as an internal standard (Avanti Polar Lipids, Alabaster, Alabama). The mixture was vortexed (Vortex-Genie, Model G560, Scientific Industries, Bohemia, NY), and 40 volumes of chloroform added. The mixture was vortexed again and centrifuged (Eppendorf centrifuge #5424) at 1,000 g for 10 minutes. The chloroform (bottom layer) was separated and dried using a Savant™ SPD131 SpeedVac (Thermo Scientific, Pittsburgh, PA, USA). Dried extracts were resuspended in pure methanol and sealed and stored at −80° C. until analysis by LC-ESI/MS/MS, as described previously^30-40.

[3] = system: B1-4GalT-V; test: GalT-V mass in skin tissue by ELISA, ApoE-/- mice fed western diet
Procedure: Measurement of B1-4GalT-V mass in skin tissue: Here, about 10-mg skin tissue was homogenized in RIPA buffer and centrifuged at 10,000 rpm. The mass of GalT-V was measured in the supernatant fraction using an ELISA assay. About 100-μg of each protein sample (in triplicate) was loaded in 96-well, medium-binding, clear flat bottom polystyrene ELISA plates (Immulux, Chantilly VA)-total volume adjusted to 100 μL with bicarbonate buffer (50 mM Na2CO3—NaHCO3). […] This antibody specifically recognizes human, mouse and rat tissue B4GalT-V. Moreover, this interaction can be inhibited by large volumes of the GalT-V peptide but not other proteins or scrambled peptide. After overnight incubation at 4 C, 200 μL of blocking buffer (1% bovine serum albumin/phosphate buffered saline) was added and incubation continued overnight. […] C., followed by incubation for 1-hr at 37 deg. C. with a horseradish peroxidase-conjugated IgG (Sigma) secondary antibody. Finally, 100-μL of TMB solution was added, and after 10 min incubation at 37° C., absorbance was measured at 450 nm.

[4] = system: glucosylceramide synthase (UCGC); test: q-RT-PCR mRNA mass in skin tissue; conditions: placebo vs D-PDMP fed ApoE-/- mice (data not shown)
[5] = system: LacCer synthase (GalT-V); test: q-RT-PCR mRNA mass in skin tissue; conditions: placebo vs D-PDMP fed ApoE-/- mice (data not shown)
Procedure: Analysis of gene expression by quantitative Real-Time PCR: A ~50-mg piece of skin tissue was homogenized from each mice and total RNA was isolated using TRIsol reagent according to the manufacturer's instructions (Invitrogen, Camarillo, CA). Two microgram of RNA were reverse transcribed with SuperScript II using random primers. The primer sequence for GalT-V were as follows:
The primers were synthesized by Integrated DNA Technologies (Coralville, USA). Real time PCR were performed using SYBR Green PCR Master Mix PCR Master Mix (applied Biosystems, Foster City, CA, USA) in an Applied Biosystems Step one Real time PCR system as described previously^52. Data were normalized to GAPDH mRNA levels. Expression suite software (Applied Biosystems) was used to analyze the data.

[6] = western diet, BPD 1-10 mpk, D-PDMP 10 mpk, 20-36 weeks

## CCCCCCCCCC(=O)N[C@H](CN1CCOCC1)[C@H](O)c1ccccc1 [D-PDMP, D-threo-1-phenyl-2-decanoylamino-3-morpholino-1-propanol]
[1]; 10 mpk D-PDMP daily oral gavage, age 20-36 weeks, western diet
  % wound healing: 83%
[1]; 10 mpk unbound D-PDMP with western diet, 20 to 36 weeks
  hair discoloration, hair loss, and skin inflammation: also interfered with these pathologies
[2]; 1 mpk BPD or 10 mpk D-PDMP
  lactosylceramide d18:1/22:0 and d18:1/24:1 in skin: restored to normal
[2]; 1 mpk BPD or 10 mpk D-PDMP, western diet lowered them ~3-fold
  levels of fatty acid molecular species of skin ceramide: increased them to normal levels
[2]; 1 mpk BPD vs 10 mpk D-PDMP, western diet lowered it ~3-fold
  d18:1/24:1 monohexosylceramide in skin: but not 10 mpk D-PDMP, completely restored
[2]; 10 mpk D-PDMP
  d18:1/26:1 ceramide in skin: did not reverse the loss
[2]; 36 weeks, western diet raised it 3-fold
  lactosylceramide d18:1/16:0 in skin: modestly decreased
[2]; printed: 1 mpk D-PDMP as efficacious as 10 mpk BPD, western diet lowered it ~1.5-fold
  18:1/24:0 monohexosylceramide in skin: reversed
[2]; [6]
  glucosylceramide level in skin: also increased
  total ceramide level in skin: also increased
[2]; western diet, BPD or D-PDMP
  total lactosylceramide level in skin: decreased
[3]
  mass of GalT-V in skin tissue: showed a decrease
[4]
  mRNA mass of glucosylceramide synthase in skin: No statistical difference
[5]
  mRNA mass of LacCer synthase (GalT-V) in skin: No statistical difference
